The values below come from patent US20250129078A1, “ERBB2 INHIBITORS” (Cogent Biosciences, Inc., priority 2023, published 2025).

pIC50: −log10 of the molar value. A value given as a limit tells only on which side of the number the result lay.

The target of the test is EGFR WT (Homo sapiens (Human), UniProt P00533). Description: ErbB enzyme assay (CisBio HTRF-KinEASE-TK), EGFR WT. Format: biochemical. The note with it: ATP at Km (25 μM), 1 h incubation. The procedure: In vitro enzyme assays based on CisBio HTRF-KinEASE-TK technology were used to determine compound potencies. […]. Compounds were prepared as a three-fold serial dilution in DMSO and added to the assay to give the appropriate final concentration. After a 1 h incubation at ambient temperature, the reaction was quenched by adding 10 μL of 62.5 nM Sa-XL665 and 0.25×TK-Ab-Cryptate in HTRF detection buffer (all from CisBio, part of cat #62TKOPEC). After another 1 h incubation at ambient temperature, the extent of substrate phosphorylation was determined using a PerkinElmer EnVision multimode plate reader via time-resolved fluorescence dual wavelength detection. The percent of control (POC) was calculated using the ratio of emission at […] to the emission at 620 nm. One hundred POC was determined using DMSO only controls (no test compounds present) and zero POC was determined using pre-quenched controls reactions. A 4-parameter logistic equation was fit to the POC values as a function of the test compound concentration and the IC50 value was determined as the point where the curve crossed 50 POC.

As usually defined, the pIC50 is the negative decadic logarithm of the IC50, by convention in mol/L. Read a low pIC50 as a large IC50.

Chain of EGFR WT (P00533 25-1210): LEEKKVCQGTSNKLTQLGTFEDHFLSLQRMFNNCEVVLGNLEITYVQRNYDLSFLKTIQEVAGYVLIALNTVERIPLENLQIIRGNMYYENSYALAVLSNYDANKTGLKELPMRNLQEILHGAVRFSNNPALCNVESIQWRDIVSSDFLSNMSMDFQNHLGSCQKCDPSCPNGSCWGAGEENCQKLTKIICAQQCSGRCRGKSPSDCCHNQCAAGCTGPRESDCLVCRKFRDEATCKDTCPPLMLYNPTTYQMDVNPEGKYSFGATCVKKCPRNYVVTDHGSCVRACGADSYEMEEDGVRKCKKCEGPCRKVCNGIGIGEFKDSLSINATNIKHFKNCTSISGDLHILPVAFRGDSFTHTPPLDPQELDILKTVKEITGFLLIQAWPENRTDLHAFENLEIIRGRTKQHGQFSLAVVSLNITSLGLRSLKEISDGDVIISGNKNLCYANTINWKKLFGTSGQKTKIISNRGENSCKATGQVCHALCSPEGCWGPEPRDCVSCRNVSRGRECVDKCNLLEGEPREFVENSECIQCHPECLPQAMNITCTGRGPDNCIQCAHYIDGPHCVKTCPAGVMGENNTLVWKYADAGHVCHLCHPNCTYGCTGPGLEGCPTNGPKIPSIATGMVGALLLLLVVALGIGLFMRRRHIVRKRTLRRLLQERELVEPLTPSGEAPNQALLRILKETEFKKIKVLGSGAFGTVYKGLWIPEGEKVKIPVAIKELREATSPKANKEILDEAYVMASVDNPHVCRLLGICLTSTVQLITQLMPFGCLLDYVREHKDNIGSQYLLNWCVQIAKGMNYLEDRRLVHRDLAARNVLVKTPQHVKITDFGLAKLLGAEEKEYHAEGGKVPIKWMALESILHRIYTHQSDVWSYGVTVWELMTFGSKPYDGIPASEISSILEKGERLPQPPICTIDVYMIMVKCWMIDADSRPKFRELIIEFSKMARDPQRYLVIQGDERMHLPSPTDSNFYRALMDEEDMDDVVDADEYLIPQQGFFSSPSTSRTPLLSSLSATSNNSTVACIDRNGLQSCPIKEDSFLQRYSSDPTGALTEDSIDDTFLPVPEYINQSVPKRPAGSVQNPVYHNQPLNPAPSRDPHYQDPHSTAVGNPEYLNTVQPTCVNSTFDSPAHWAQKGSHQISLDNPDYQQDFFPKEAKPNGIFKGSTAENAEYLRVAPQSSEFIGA

Molecule `C=CC(=O)N[C@H]1CCN(c2ccc3ncnc(Nc4ccc(Oc5ccc6c(c5)nnn6C)c(C)c4F)c3n2)CC1(C)C` [Compound 343, (S)-N-(1-(4-((2-fluoro-3-methyl-4-((1-methyl-1H-benzo[d][1,2,3]triazol-5-yl)oxy)phenyl)amino)pyrido[3,2-d]pyrimidin-6-yl)-3,3-dimethylpiperidin-4-yl)acrylamide] gave a pIC50 of 6.30 to 7.00.
Then `C=CC(=O)N[C@]1(C)CCN(c2ncc3ncnc(Nc4ccc(Oc5ccc6c(c5)nnn6C)c(C)c4)c3n2)C1` [Compound 144, (R)-N-(3-methyl-1-(8-((3-methyl-4-((1-methyl-1H-benzo[d][1,2,3]triazol-5-yl)oxy)phenyl)amino)pyrimido[5,4-d]pyrimidin-2-yl)pyrrolidin-3-yl)acrylamide], with more than 7.30; and `C=CC(=O)N1CCN(c2ccc3ncnc(Nc4ccc(Oc5ccc6c(c5)nnn6C)c(C)c4)c3n2)CC12CC2` [Compound 74, 1-(7-(4-((3-methyl-4-((1-methyl-1H-benzo[d][1,2,3]triazol-5-yl)oxy)phenyl)amino)pyrido[3,2-d]pyrimidin-6-yl)-4,7-diazaspiro[2.5]octan-4-yl)prop-2-en-1-one], with more than 7.30; and `C=CC(=O)N1CCN(c2ncc3ncnc(Nc4ccc(Oc5cc(F)c6c(c5)nnn6C)c(C)c4F)c3n2)C[C@H]1C1CC1` [Compound 197, (R)-1-(2-cyclopropyl-4-(8-((2-fluoro-4-((7-fluoro-1-methyl-1H-benzo[d][1,2,3]triazol-5-yl)oxy)-3-methylphenyl)amino)pyrimido[5,4-d]pyrimidin-2-yl)piperazin-1-yl)prop-2-en-1-one], with 6.30 to 7.00.
Then `C=CC(=O)N1CCN(c2ncc3ncnc(Nc4ccc(Oc5cc(F)c6c(c5)ncn6C)c(C)c4)c3n2)C[C@H]1CC` [Compound 163, (R)-1-(2-ethyl-4-(8-((4-((7-fluoro-1-methyl-1H-benzo[d]imidazol-5-yl)oxy)-3-methylphenyl)amino)pyrimido[5,4-d]pyrimidin-2-yl)piperazin-1-yl)prop-2-en-1-one], with 6.30 to 7.00.
Regarding `Cc1cc(Nc2ncnc3ccc(N4CC5CC(C4)N5C(=O)/C=C/C(F)F)nc23)ccc1Oc1ccc2c(c1)nnn2C` [Compound 359, (E)-4,4-difluoro-1-(3-(4-((3-methyl-4-((1-methyl-1H-benzo[d][1,2,3]triazol-5-yl)oxy)phenyl)amino)pyrido[3,2-d]pyrimidin-6-yl)-3,6-diazabicyclo[3.1.1]heptan-6-yl)but-2-en-1-one], the pIC50 is 6.30 to 7.00.
Then `C=CC(=O)N1CC2CC1CN2c1ccc2ncnc(Nc3ccc(Oc4ccc5c(c4)nnn5C)c(C)c3)c2n1` (stereo not drawn) [Compound 81, 1-(5-(4-((3-methyl-4-((1-methyl-1H-benzo[d][1,2,3]triazol-5-yl)oxy)phenyl)amino)pyrido[3,2-d]pyrimidin-6-yl)-2,5-diazabicyclo[2.2.1]heptan-2-yl)prop-2-en-1-one], with more than 7.30; and `C=CC(=O)N1CC[C@@H](N(C)c2ncc3ncnc(Nc4ccc(Oc5ccc6c(c5)nnn6C)c(C)c4)c3n2)C1` [Compound 128, (R)-1-(3-(methyl(8-((3-methyl-4-((1-methyl-1H-benzo[d][1,2,3]triazol-5-yl)oxy)phenyl)amino)pyrimido[5,4-d]pyrimidin-2-yl)amino)pyrrolidin-1-yl)prop-2-en-1-one], with 6.30 to 7.00; and `C=CC(=O)N1CCN(c2ncc3ncnc(Nc4ccc(Oc5ccc6c(c5)nnn6C)c(C)c4)c3n2)C[C@@H]1CF` (single isomer, unassigned) [Compound 199], with more than 7.30.
In turn, `C=CC(=O)N[C@H]1CN(c2ccc3ncnc(Nc4ccc(Oc5ccc6c(c5)nnn6C)c(C)c4)c3n2)C[C@H]1F` [Compound 277, N-((3S,4R)-4-fluoro-1-(4-((3-methyl-4-((1-methyl-1H-benzo[d][1,2,3]triazol-5-yl)oxy)phenyl)amino)pyrido[3,2-d]pyrimidin-6-yl)pyrrolidin-3-yl)acrylamide] had a pIC50 of 6.30 to 7.00.
Then `C=CC(=O)N[C@H]1CCCN(c2ccc3ncnc(Nc4ccc(Oc5ccc6c(c5)nnn6C)c(C)c4F)c3n2)CC1` [Compound 282, (S)-N-(1-(4-((2-fluoro-3-methyl-4-((1-methyl-1H-benzo[d][1,2,3]triazol-5-yl)oxy)phenyl)amino)pyrido[3,2-d]pyrimidin-6-yl)azepan-4-yl)acrylamide], with 6.00 to 6.30; and `C=C(F)C(=O)N1CCN(c2ccc3ncnc(Nc4ccc(Oc5ccc6c(c5)nnn6C)c(C)c4)c3n2)C[C@H]1CC#N` [Compound 86, (R)-2-(1-(2-fluoroacryloyl)-4-(4-((3-methyl-4-((1-methyl-1H-benzo[d][1,2,3]triazol-5-yl)oxy)phenyl)amino)pyrido[3,2-d]pyrimidin-6-yl)piperazin-2-yl)acetonitrile], with not above 6.00.
Then `C=CC(=O)N[C@]1(C)CCCN(c2ncc3ncnc(Nc4ccc(Oc5ccc6c(c5)nnn6C)c(C)c4)c3n2)C1` [Compound 200, (R)-N-(3-methyl-1-(8-((3-methyl-4-((1-methyl-1H-benzo[d][1,2,3]triazol-5-yl)oxy)phenyl)amino)pyrimido[5,4-d]pyrimidin-2-yl)piperidin-3-yl)acrylamide], with more than 7.30; and `C=CC(=O)N1CCN(c2ccc3ncnc(Nc4ccc(Oc5ccc6c(c5)nnn6C)c(C)c4)c3n2)C[C@H]1COC` [Compound 77, (S)-1-(2-(methoxymethyl)-4-(4-((3-methyl-4-((1-methyl-1H-benzo[d][1,2,3]triazol-5-yl)oxy)phenyl)amino)pyrido[3,2-d]pyrimidin-6-yl)piperazin-1-yl)prop-2-en-1-one], with more than 7.30.
To `C=CC(=O)N1CC2(C1)CN(c1ncc3ncnc(Nc4ccc(Oc5ccc6c(c5)nnn6C)c(C)c4F)c3n1)C2` [Compound 23, 1-(6-(8-((2-fluoro-3-methyl-4-((1-methyl-1H-benzo[d][1,2,3]triazol-5-yl)oxy)phenyl)amino)pyrimido [5,4-d]pyrimidin-2-yl)-2,6-diazaspiro[3.3]heptan-2-yl)prop-2-en-1-one] belongs not above 6.00; to `Cc1cc(Nc2ncnc3ccc(N4CCN(C(=O)/C=C/C(F)F)[C@@H](C)C4)nc23)ccc1Oc1ccc2c(c1)nnn2C` [Compound 369, (S,E)-4,4-difluoro-1-(2-methyl-4-(4-((3-methyl-4-((1-methyl-1H-benzo[d][1,2,3]triazol-5-yl)oxy)phenyl)amino)pyrido[3,2-d]pyrimidin-6-yl)piperazin-1-yl)but-2-en-1-one], 6.30 to 7.00; to `C=CC(=O)N1CCN(c2ncc3ncnc(Nc4ccc(Oc5ccc6c(c5)nnn6C)c(C)c4)c3n2)C[C@H]1CF` (single isomer, unassigned) [Compound 198], 6.30 to 7.00.
The molecule `C=C(F)C(=O)N1CC[C@H](N(C)c2ccc3ncnc(Nc4ccc(Oc5ccc6c(c5)nnn6C)c(C)c4F)c3n2)C1` [Compound 365, (S)-2-fluoro-1-(3-((4-((2-fluoro-3-methyl-4-((1-methyl-1H-benzo[d][1,2,3]triazol-5-yl)oxy)phenyl)amino)pyrido[3,2-d]pyrimidin-6-yl)(methyl)amino)pyrrolidin-1-yl)prop-2-en-1-one] had a pIC50 not above 6.00.
Then `C=CC(=O)N[C@@H]1CCCN(c2ncc3ncnc(Nc4ccc(Oc5cc(F)c6c(c5)nnn6C)c(C)c4F)c3n2)C1` [Compound 178, (R)-N-(1-(8-((2-fluoro-4-((7-fluoro-1-methyl-1H-benzo[d][1,2,3]triazol-5-yl)oxy)-3-methylphenyl)amino)pyrimido[5,4-d]pyrimidin-2-yl)piperidin-3-yl)acrylamide], with more than 7.30.
Then `C=CC(=O)N1CCN(c2ncc3ncnc(Nc4ccc(Oc5cc6nnn(C)c6c(C)c5F)c(C)c4)c3n2)CC1` [Compound 141, 1-(4-(8-((4-((6-fluoro-1,7-dimethyl-1H-benzo[d][1,2,3]triazol-5-yl)oxy)-3-methylphenyl)amino)pyrimido[5,4-d]pyrimidin-2-yl)piperazin-1-yl)prop-2-en-1-one], with 6.30 to 7.00.
As to `C=CC(=O)N1CCN(c2ccc3ncnc(Nc4cc(C)c(Oc5cc(F)c6c(c5)ncn6C)cc4OC)c3n2)CC1` [Compound 372, 1-(4-(4-((4-((7-fluoro-1-methyl-1H-benzo[d]imidazol-5-yl)oxy)-2-methoxy-5-methylphenyl)amino)pyrido[3,2-d]pyrimidin-6-yl)piperazin-1-yl)prop-2-en-1-one], the pIC50 was 6.30 to 7.00.
To `Cc1cc(Nc2ncnc3ccc(N4CC5CCC(C4)N5C(=O)/C=C/C(F)F)nc23)ccc1Oc1ccc2c(c1)nnn2C` [Compound 358, (E)-4,4-difluoro-1-(3-(4-((3-methyl-4-((1-methyl-1H-benzo[d][1,2,3]triazol-5-yl)oxy)phenyl)amino)pyrido[3,2-d]pyrimidin-6-yl)-3,8-diazabicyclo[3.2.1]octan-8-yl)but-2-en-1-one] belongs 7.00 to 7.30; to `C=CC(=O)N1CCN(c2ncc3ncnc(Nc4ccc(Oc5ccc6c(c5)nnn6C)c(C)c4)c3n2)C[C@H]1C(C)C` [Compound 121, (R)-1-(2-isopropyl-4-(8-((3-methyl-4-((1-methyl-1H-benzo[d][1,2,3]triazol-5-yl)oxy)phenyl)amino)pyrimido[5,4-d]pyrimidin-2-yl)piperazin-1-yl)prop-2-en-1-one], not above 6.00.
Regarding `C=CC(=O)N1CCN(c2ccc3ncnc(Nc4ccc(Oc5ccc6c(c5)nnn6C)c(C)c4)c3n2)C[C@@H]1CC#N` [Compound 83, (S)-2-(1-acryloyl-4-(4-((3-methyl-4-((1-methyl-1H-benzo[d][1,2,3]triazol-5-yl)oxy)phenyl)amino)pyrido[3,2-d]pyrimidin-6-yl)piperazin-2-yl)acetonitrile], the pIC50 is more than 7.30.
